# Patent US10118930B2, “Piperidinylpyrazolopyrimidinones and their use” (BAYER PHARMA AKTIENGESELLSCHAFT, priority 2015, dated 2018)
# Structures can show the parent of a compound that is named as a salt.
# Tested on: clot lysis (fibrinolysis) in diluted human citrated plasma, tPA-induced
# Experiment: Plasma-based clot lysis assay (5%)
# Assay type: biochemical
# Settings: human citrated platelet-poor plasma 5%, fibrinogen 3 μM, CaCl2 10 mM, tPA 0.2 nM, 37° C., OD at 405 nm
# Description: B-2. Plasma-based Clot Lysis Assay (5%)
# The clot-lysis test system configures the kinetics of clot formation and degradation in vitro and allows quantifying modulation of the process by selected test compounds.
# The test compounds were dissolved in 1% acetic acid and further complemented with an equal volume of DMSO. The resulting stock solutions were serially diluted in 0.5% acetic acid/50% DMSO. 1 μL aliquots of these solutions were placed into 384 well microplates (Greiner, black, transparent bottom), followed by 30 μL of diluted human citrated plasma (platelet-poor, final concentration: 5%; supplemented with fibrinogen, final concentration: 3 μM; dilution buffer: 20 mM HEPES, 150 mM NaCl, 0.01% Brij (pH 7)). The reactions were started by addition of 20 μL of CaCl2 (final concentration: 10 mM), and tPA (tissue plasminogen activator, final concentration: 0.2 nM) in dilution buffer, followed by an additional volume of 20 μL dilution buffer for improved mixing. The reactions were incubated at 37° C. […] IC50 values were determined by comparing the resulting time courses with the time course of a blank control reaction.
row,Compound,IC50 [nM]
1,"N#Cc1ccccc1-c1cnn2c(C3CCNCC3)cc(=O)[nH]c12 [Example 49, 2-[5-Oxo-7-(piperidin-4-yl)-4,5-dihydropyrazolo[1,5-a]pyrimidin-3-yl]benzonitrile trifluoroacetate]",16
2,"N#Cc1cccc(-c2cnn3c(C4CCNCC4)cc(=O)[nH]c23)c1 [Example 50, 3-[5-Oxo-7-(piperidin-4-yl)-4,5-dihydropyrazolo[1,5-a]pyrimidin-3-yl]benzonitrile trifluoroacetate]",24
3,"C[C@H]1C[C@H](c2cc(=O)[nH]c3c(C(N)=O)cnn23)CCN1 [Example 51, (−)-trans-7-(2-Methylpiperidin-4-yl)-5-oxo-4,5-dihydropyrazolo[1,5-a]pyrimidine-3-carboxamide trifluoroacetate]",16
4,"COc1ccc(-c2cnn3c(C4CCNCC4)cc(=O)[nH]c23)cc1 [Example 53, 3-(4-Methoxyphenyl)-7-(piperidin-4-yl)pyrazolo[1,5-a]pyrimidin-5(4H)-one hydrochloride]",15
5,"COc1ccc(-c2cnn3c(C4CCNCC4)cc(=O)[nH]c23)cc1OC [Example 54, 3-(3,4-Dimethoxyphenyl)-7-(piperidin-4-yl)pyrazolo[1,5-a]pyrimidin-5(4H)-one hydrochloride]",18
6,"CS(=O)(=O)c1ccc(-c2cnn3c(C4CCNCC4)cc(=O)[nH]c23)cc1 [Example 55, 3-[4-(Methylsulfonyl)phenyl]-7-(piperidin-4-yl)pyrazolo[1,5-a]pyrimidin-5(4H)-one hydrochloride]",19
7,"O=c1cc(C2CCNCC2)n2ncc(-c3ccccc3F)c2[nH]1 [Example 56, 3-(2-Fluorophenyl)-7-(piperidin-4-yl)pyrazolo[1,5-a]pyrimidin-5(4H)-one hydrochloride]",770
8,"O=c1cc(C2CCNCC2)n2ncc(-c3ccc(C(F)(F)F)cc3)c2[nH]1 [Example 57, 7-(Piperidin-4-yl)-3-[4-(trifluoromethyl)phenyl]pyrazolo[1,5-a]pyrimidin-5(4H)-one hydrochloride]",21
9,"O=c1cc(C2CCNCC2)n2ncc(-c3cccc(C(F)(F)F)c3)c2[nH]1 [Example 58, 7-(Piperidin-4-yl)-3-[3-(trifluoromethyl)phenyl]pyrazolo[1,5-a]pyrimidin-5(4H)-one hydrochloride]",16
10,"O=c1cc(C2CCNCC2)n2ncc(-c3cccs3)c2[nH]1 [Example 59, 7-(Piperidin-4-yl)-3-(2-thienyl)pyrazolo[1,5-a]pyrimidin-5(4H)-one hydrochloride]",15
11,"COc1cccc(-c2cnn3c(C4CCNCC4)cc(=O)[nH]c23)c1 [Example 60, 3-(3-Methoxyphenyl)-7-(piperidin-4-yl)pyrazolo[1,5-a]pyrimidin-5(4H)-one hydrochloride]",13
12,"O=c1cc(C2CCNCC2)n2ncc(-c3ccc4c(c3)OCCO4)c2[nH]1 [Example 61, 3-(2,3-Dihydro-1,4-benzodioxin-6-yl)-7-(piperidin-4-yl)pyrazolo[1,5-a]pyrimidin-5 (4H)-one hydrochloride]",34
13,"COc1ccc(OC)c(-c2cnn3c(C4CCNCC4)cc(=O)[nH]c23)c1 [Example 62, 3-(2,5-Dimethoxyphenyl)-7-(piperidin-4-yl)pyrazolo[1,5-a]pyrimidin-5(4H)-one hydrochloride]",34
14,"O=c1cc(C2CCNCC2)n2ncc(-c3ccccc3C(F)(F)F)c2[nH]1 [Example 63, 7-(Piperidin-4-yl)-3-[2-(trifluoromethyl)phenyl]pyrazolo[1,5-a]pyrimidin-5(4H)-one hydrochloride]",40
15,"C[C@H]1C[C@H](c2cc(=O)[nH]c3c(C#N)cnn23)CCN1 [Example 65, (−)-trans-7-(2-Methylpiperidin-4-yl)-5-oxo-4,5-dihydropyrazolo[1,5-a]pyrimidine-3-carbonitrile trifluoroacetate]",12
16,"N#Cc1csc(-c2cnn3c(C4CCNCC4)cc(=O)[nH]c23)c1 [Example 68, 5-[5-Oxo-7-(piperidin-4-yl)-4,5-dihydropyrazolo[1,5-a]pyrimidin-3-yl]thiophene-3-carbonitrile trifluoroacetate]",11
17,"COc1ccc(-c2cnn3c(C4CCNCC4)cc(=O)[nH]c23)cn1 [Example 69, 3-(6-Methoxypyridin-3-yl)-7-(piperidin-4-yl)pyrazolo[1,5-a]pyrimidin-5 (4H)-one]",19
18,"O=c1cc(C2CCNCC2)n2ncc(-c3cccc(OC(F)(F)F)c3)c2[nH]1 [Example 70, 7-(Piperidin-4-yl)-3-[3-(trifluoromethoxy)phenyl]pyrazolo[1,5-a]pyrimidin-5(4H)-one hydrochloride]",14

row,Compound,IC50 [nM]
1,"O=c1cc(C2CCNCC2)n2ncc(-c3ccccc3OC(F)(F)F)c2[nH]1 [Example 71, 7-(Piperidin-4-yl)-3-[2-(trifluoromethoxy)phenyl]pyrazolo[1,5-a]pyrimidin-5(4H)-one hydrochloride]",34
2,"O=c1cc(C2CCNCC2)n2ncc(-c3ccc(F)c(Cl)c3)c2[nH]1 [Example 72, 3-(3-Chloro-4-fluorophenyl)-7-(piperidin-4-yl)pyrazolo[1,5-a]pyrimidin-5(4H)-one hydrochloride]",64
3,"O=c1cc(C2CCNCC2)n2ncc(S(=O)(=O)c3ccc(Cl)cc3Cl)c2[nH]1 [Example 74, 3-[(2,4-Dichlorophenyl)sulfonyl]-7-(piperidin-4-yl)pyrazolo[1,5-a]pyrimidin-5(4H)-one hydrochloride]",18
4,"O=C(Nc1cccc2ccccc12)c1cnn2c(C3CCNCC3)cc(=O)[nH]c12 [Example 75, N-(naphthalen-1-yl)-5-oxo-7-(piperidin-4-yl)-4,5-dihydropyrazolo[1,5-a]pyrimidine-3-carboxamide]",40
5,"Cc1ccc(F)cc1NC(=O)c1cnn2c(C3CCNCC3)cc(=O)[nH]c12 [Example 76, N-(5-fluoro-2-methylphenyl)-5-oxo-7-(piperidin-4-yl)-4,5-dihydropyrazolo[1,5-a]pyrimidine-3-carboxamide]",29
6,O=C(NCC1CCCC1)c1cnn2c(C3CCNCC3)cc(=O)[nH]c12 [Example 77],62
7,"CN(CC1CC1)C(=O)c1cnn2c(C3CCNCC3)cc(=O)[nH]c12 [Example 78, N-(cyclopropylmethyl)-N-methyl-5-oxo-7-(piperidin-4-yl)-4,5-dihydropyrazolo[1,5-a]pyrimidine-3-carboxamide]",48
8,"CCc1cccc(NC(=O)c2cnn3c(C4CCNCC4)cc(=O)[nH]c23)c1 [Example 80, N-(3-ethylphenyl)-5-oxo-7-(piperidin-4-yl)-4,5-dihydropyrazolo[1,5-a]pyrimidine-3-carboxamide]",33
9,"Cc1cc(F)ccc1NC(=O)c1cnn2c(C3CCNCC3)cc(=O)[nH]c12 [Example 81, N-(4-fluoro-2-methylphenyl)-5-oxo-7-(piperidin-4-yl)-4,5-dihydropyrazolo[1,5-a]pyrimidine-3-carboxamide]",81
10,"Cc1ccc(NC(=O)c2cnn3c(C4CCNCC4)cc(=O)[nH]c23)cc1C [Example 85, N-(3,4-dimethylphenyl)-5-oxo-7-(piperidin-4-yl)-4,5-dihydropyrazolo[1,5-a]pyrimidine-3-carboxamide hydrochloride]",32
11,"Cc1ccccc1CNC(=O)c1cnn2c(C3CCNCC3)cc(=O)[nH]c12 [Example 86, N-(2-methylbenzyl)-5-oxo-7-(piperidin-4-yl)-4,5-dihydropyrazolo[1,5-a]pyrimidine-3-carboxamide hydrochloride]",17
12,"O=C(Nc1cccc(Cl)c1F)c1cnn2c(C3CCNCC3)cc(=O)[nH]c12 [Example 87, N-(3-chloro-2-fluorophenyl)-5-oxo-7-(piperidin-4-yl)-4,5-dihydropyrazolo[1,5-a]pyrimidine-3-carboxamide hydrochloride]",30
13,"COCCCNC(=O)c1cnn2c(C3CCNCC3)cc(=O)[nH]c12 [Example 88, N-(3-methoxypropyl)-5-oxo-7-(piperidin-4-yl)-4,5-dihydropyrazolo[1,5-a]pyrimidine-3-carboxamide hydrochloride]",49
14,"NC(=O)CCNC(=O)c1cnn2c(C3CCNCC3)cc(=O)[nH]c12 [Example 89, N-(3-amino-3-oxopropyl)-5-oxo-7-(piperidin-4-yl)-4,5-dihydropyrazolo[1,5-a]pyrimidine-3-carboxamide hydrochloride]",140
15,"O=C(NCCN1CCOC1=O)c1cnn2c(C3CCNCC3)cc(=O)[nH]c12 [Example 92, 5-oxo-N-[2-(2-oxo-1,3-oxazolidin-3-yl)ethyl]-7-(piperidin-4-yl)-4,5-dihydropyrazolo[1,5-a]pyrimidine-3-carboxamide hydrochloride]",33
16,"CC(C)(C)CNC(=O)c1cnn2c(C3CCNCC3)cc(=O)[nH]c12 [Example 93, N-(2,2-dimethylpropyl)-5-oxo-7-(piperidin-4-yl)-4,5-dihydropyrazolo[1,5-a]pyrimidine-3-carboxamide hydrochloride]",22
17,"O=C(NC1(Cc2ccccc2)CC1)c1cnn2c(C3CCNCC3)cc(=O)[nH]c12 [Example 94, N-(1-benzylcyclopropyl)-5-oxo-7-(piperidin-4-yl)-4,5-dihydropyrazolo[1,5-a]pyrimidine-3-carboxamide hydrochloride]",30
18,"O=C(c1cnn2c(C3CCNCC3)cc(=O)[nH]c12)N1CCC(O)CC1 [Example 95, 3-[(4-hydroxypiperidin-1-yl)carbonyl]-7-(piperidin-4-yl)pyrazolo[1,5-a]pyrimidin-5(4H)-one hydrochloride]",43
